The values that follow come from ChEMBL document CHEMBL1151812, “Homotyrosine-containing cyanopeptolins 880 and 960 and anabaenopeptins 908 and 915 from Planktothrix agardhii CYA 126/8” (J Nat Prod, 2009).

Structures are written as SMILES. Activity calls are given as the source filed them. No cut-off for these calls is given here. Numbered stars: 1 amine (or outer) side, 2 acyl side, 3 side chain; on linkers, the order of the positions; unused ones are H or OH. Bridge positions count the residues as written; N and C are the ends. Square brackets hold non-standard residues; d marks the D form. Peptide text beside a SMILES is read from it. NMehTyr = CN[C@@H](CCc1ccc(O)cc1)C(=O)O; hTyr = N[C@@H](CCc1ccc(O)cc1)C(=O)O; CO = O=C([*:1])[*:2]

Experiment [1] is described as follows: Inhibition of trypsin up to 100 ug/ml.
Experiment [2] in a line: Inhibition of chymotrypsin up to 100 ug/ml.
Experiment [3] concerns the target T1, Carboxypeptidase A1 (Homo sapiens) (UniProt P15085).
T1 sequence (whole entry): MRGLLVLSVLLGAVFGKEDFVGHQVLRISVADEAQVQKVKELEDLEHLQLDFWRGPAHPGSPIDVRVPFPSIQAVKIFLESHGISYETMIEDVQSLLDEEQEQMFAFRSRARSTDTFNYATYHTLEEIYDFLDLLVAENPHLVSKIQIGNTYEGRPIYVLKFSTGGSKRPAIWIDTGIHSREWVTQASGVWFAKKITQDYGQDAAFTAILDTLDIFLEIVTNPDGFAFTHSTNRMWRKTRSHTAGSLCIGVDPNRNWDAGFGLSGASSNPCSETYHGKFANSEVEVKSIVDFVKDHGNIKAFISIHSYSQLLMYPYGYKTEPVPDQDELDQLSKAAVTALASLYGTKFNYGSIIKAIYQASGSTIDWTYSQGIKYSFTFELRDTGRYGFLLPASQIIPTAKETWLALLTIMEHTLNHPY
In words: Inhibition of carboxypeptidase A up to 20 ug/ml.

Another experiment addresses T2, Carboxypeptidase A1 (Homo sapiens, UniProt P15085).
T2 sequence (P15085 whole entry): T1 sequence (whole entry)
In words: Inhibition of carboxypeptidase A.

Regarding `CC[C@H](C)[C@@H]1NC(=O)[C@H](CCc2ccc(O)cc2)N(C)C(=O)[C@H](CCc2ccc(O)cc2)NC(=O)[C@H](C(C)C)NC(=O)[C@H](NC(=O)N[C@@H](CCCNC(=N)N)C(=O)O)CCCCNC1=O` ({Arg-CO}-[dK]V[hTyr][NMehTyr]I; lactam 1-C), the result in experiment [1], in experiment [2] and in experiment [3] was inactive.

`CC[C@H](C)[C@@H]1NC(=O)[C@H](CCc2ccc(O)cc2)N(C)C(=O)[C@H](CCc2ccc(O)cc2)NC(=O)[C@H](C(C)C)NC(=O)[C@H](NC(=O)N[C@@H](Cc2ccc(O)cc2)C(=O)O)CCCCNC1=O` [ANABAENOPEPTIN 915] ({Tyr-CO}-[dK]V[hTyr][NMehTyr]I; lactam 1-C): it took 131 nM to reach half-maximal inhibition against Carboxypeptidase A1 (IC50). Besides, the outcome in experiment [1] and in experiment [2] was inactive.

One may read the IC50 as the midpoint of a concentration-inhibition curve. The low end stands for inhibition by little substance, the high end for a need for much substance.
